Source: the NIST ThermoML archive (doi:10.1021/acs.jced.8b00358)
± gives the expanded uncertainty stated by the source.

Legend:
[1] = 83 kPa, Liquid; for speed of sound: Frequency=3 MHz, Single path-length method; for mass density: Vibrating tube method
[2] = molar heat capacity at constant pressure; settings: 83 kPa, Liquid, DSC

CCCCCCCCC(=O)OCC(COC(=O)CCCCCCCC)(COC(=O)CCCCCCCC)COC(=O)CCCCCCCC [pentaerythritol tetranonanoate]
Settings | mass density [kg/m3] | molar heat capacity at constant pressure [J/K/mol] | speed of sound [m/s]
[1], 283.15 K | 961.49 ± 13 | – | 1438.9 ± 7.2
[1], 288.15 K | 957.85 ± 13 | – | 1421.7 ± 7.2
[1], 293.15 K | 954.2 ± 13 | – | 1404.7 ± 7.2
[1], 298.15 K | 950.58 ± 13 | – | 1387.9 ± 7.2
[1], 303.15 K | 946.97 ± 13 | – | 1371.5 ± 7.2
[1], 308.15 K | 943.37 ± 13 | – | 1355.2 ± 7.2
[1], 313.15 K | 939.77 ± 13 | – | 1339.1 ± 7.2
[1], 318.15 K | 936.18 ± 12 | – | 1323.2 ± 7.2
[1], 323.15 K | 932.6 ± 12 | – | 1307.5 ± 7.2
[1], 328.15 K | 929.02 ± 12 | – | 1292 ± 7.2
[1], 333.15 K | 925.45 ± 12 | – | 1276.6 ± 7.2
[1], 338.15 K | 921.88 ± 12 | – | 1261.4 ± 7.2
[1], 343.15 K | 918.32 ± 12 | – | 1246.4 ± 7.2
[2], 313.13 K | – | 1352.3 ± 54 | –
[2], 314.13 K | – | 1354.3 ± 54 | –
[2], 315.14 K | – | 1355.7 ± 54 | –
[2], 316.13 K | – | 1357.8 ± 54 | –
[2], 317.14 K | – | 1359.9 ± 55 | –
[2], 318.13 K | – | 1362 ± 54 | –
[2], 319.13 K | – | 1363.4 ± 54 | –
[2], 320.14 K | – | 1365.5 ± 55 | –
[2], 321.13 K | – | 1367.6 ± 55 | –
[2], 322.13 K | – | 1369 ± 55 | –
[2], 323.14 K | – | 1371.1 ± 55 | –
[2], 324.13 K | – | 1373.2 ± 55 | –
[2], 325.13 K | – | 1374.6 ± 55 | –
[2], 326.13 K | – | 1376.6 ± 56 | –
[2], 327.13 K | – | 1378.7 ± 56 | –
[2], 328.14 K | – | 1380.8 ± 55 | –
[2], 329.14 K | – | 1382.9 ± 56 | –
[2], 330.13 K | – | 1384.3 ± 55 | –
[2], 331.13 K | – | 1386.4 ± 55 | –
[2], 332.13 K | – | 1388.5 ± 56 | –
[2], 333.13 K | – | 1390.6 ± 56 | –
[2], 334.13 K | – | 1392.7 ± 56 | –
[2], 335.13 K | – | 1394.8 ± 56 | –
[2], 336.14 K | – | 1396.9 ± 56 | –
[2], 337.13 K | – | 1399 ± 56 | –
[2], 338.13 K | – | 1401 ± 56 | –
[2], 339.13 K | – | 1403.1 ± 56 | –
[2], 340.13 K | – | 1405.2 ± 56 | –
[2], 341.14 K | – | 1406.6 ± 56 | –
[2], 342.14 K | – | 1408.7 ± 56 | –
[2], 343.13 K | – | 1410.8 ± 56 | –
[2], 344.13 K | – | 1412.9 ± 56 | –
[2], 345.14 K | – | 1415 ± 56 | –
[2], 346.13 K | – | 1417.1 ± 56 | –
[2], 347.13 K | – | 1419.2 ± 56 | –
[2], 348.13 K | – | 1421.3 ± 56 | –
[2], 349.13 K | – | 1423.4 ± 56 | –
[2], 350.14 K | – | 1425.4 ± 56 | –
[2], 351.13 K | – | 1427.5 ± 56 | –
[2], 352.13 K | – | 1429.6 ± 56 | –
[2], 353.14 K | – | 1431.7 ± 57 | –
[2], 354.13 K | – | 1433.8 ± 57 | –
[2], 355.14 K | – | 1435.9 ± 57 | –
[2], 356.13 K | – | 1438 ± 57 | –
[2], 357.13 K | – | 1440.1 ± 57 | –
[2], 358.13 K | – | 1442.2 ± 57 | –
[2], 359.13 K | – | 1444.3 ± 57 | –
[2], 360.13 K | – | 1446.4 ± 57 | –
[2], 361.13 K | – | 1448.4 ± 57 | –
[2], 362.13 K | – | 1450.5 ± 57 | –
[2], 363.13 K | – | 1452.6 ± 57 | –
[2], 364.13 K | – | 1454.7 ± 58 | –
[2], 365.13 K | – | 1456.8 ± 58 | –
[2], 366.13 K | – | 1458.9 ± 58 | –
[2], 367.13 K | – | 1461 ± 58 | –
[2], 368.13 K | – | 1463.1 ± 58 | –
[2], 369.13 K | – | 1465.2 ± 58 | –
[2], 370.13 K | – | 1467.3 ± 58 | –
[2], 371.13 K | – | 1469.4 ± 58 | –
[2], 372.13 K | – | 1471.4 ± 58 | –
[2], 373.13 K | – | 1473.5 ± 58 | –
[2], 374.14 K | – | 1475.6 ± 59 | –
[2], 375.14 K | – | 1477.7 ± 59 | –
[2], 376.13 K | – | 1479.8 ± 59 | –
[2], 377.13 K | – | 1481.9 ± 59 | –
[2], 378.13 K | – | 1484 ± 59 | –
[2], 379.13 K | – | 1486.1 ± 59 | –
[2], 380.14 K | – | 1488.2 ± 59 | –
[2], 381.13 K | – | 1491 ± 59 | –
[2], 382.13 K | – | 1493.1 ± 59 | –
[2], 383.13 K | – | 1495.1 ± 59 | –
[2], 384.13 K | – | 1497.2 ± 59 | –
[2], 385.13 K | – | 1499.3 ± 59 | –
[2], 386.13 K | – | 1501.4 ± 59 | –
[2], 387.13 K | – | 1503.5 ± 59 | –
[2], 388.13 K | – | 1505.6 ± 59 | –
[2], 389.13 K | – | 1507.7 ± 59 | –
[2], 390.13 K | – | 1509.8 ± 59 | –
[2], 391.13 K | – | 1511.9 ± 59 | –
[2], 392.13 K | – | 1514 ± 59 | –
[2], 393.13 K | – | 1516.1 ± 59 | –
[2], 394.13 K | – | 1518.1 ± 59 | –
[2], 395.14 K | – | 1520.2 ± 60 | –
[2], 396.13 K | – | 1523 ± 60 | –
[2], 397.13 K | – | 1525.1 ± 60 | –
[2], 398.13 K | – | 1527.2 ± 60 | –
[2], 399.13 K | – | 1529.3 ± 60 | –
[2], 400.13 K | – | 1531.4 ± 60 | –
[2], 401.13 K | – | 1533.5 ± 60 | –
[2], 402.14 K | – | 1535.6 ± 60 | –
[2], 403.13 K | – | 1537.7 ± 60 | –
[2], 404.14 K | – | 1539.8 ± 60 | –
[2], 405.13 K | – | 1541.8 ± 60 | –
[2], 406.13 K | – | 1543.9 ± 60 | –
[2], 407.13 K | – | 1546 ± 60 | –
[2], 408.13 K | – | 1548.1 ± 60 | –
[2], 409.13 K | – | 1550.9 ± 61 | –
[2], 410.14 K | – | 1553 ± 61 | –
[2], 411.13 K | – | 1554.4 ± 61 | –
[2], 412.14 K | – | 1557.2 ± 61 | –
